Data published in patent publication US9617264B2, “2,7-diazaspiro[3.5]nonane compounds” (REMYND NV, priority 2014, dated 2017).
pEC50: −log10 of the molar value.

System: M17_3SYN cells
Assay: Paraquat-induced cytotoxicity (LDH) in α-synuclein over-expressing M17_3SYN neuroblastoma cells
Type: cell-based
Conditions: Homo sapiens, Neuroblastoma cell, 48 h, 6 mM Paraquat, 2 days, LDH toxicity inhibition, read-out: SYN EC50
Text: A α-synuclein expression plasmid was constructed by subcloning the NcoI/XhoI fragment from 212T-SYN(WT) (Griffioen et al., Biochem Biophys Acta (2006) 1762(3):312-318) containing the cDNA of human wild type α-synuclein correspondingly into a standard mammalian expression vector pcDNA3.1 resulting in plasmid pcDNA3.1-SYNwt. Plasmids pcDNA3.1 and pcDNA3.1-SYNwt were transfected into human neuroblastoma cells (BE-M17; ATCC No. CRL-2267™) using lipofectamine reagent and subsequently, independent clonal cell lines with the plasmids stably integrated into the genome were selected by antibiotic resistance selection (Geneticin (G418)), resulting in cell lines M17.pcDNA3 and M17_3SYN. Overexpression of α-synuclein in the M17_3SYN cell line was confirmed by Western blot analysis.
Due to the high levels of α-synuclein, M17_3SYN cells were sensitive to paraquat, a well-known risk factor Parkinson's disease and of synuclein-dependent neuronal degeneration. Cytotoxicity of cells was measured by quantification of lactate dehydrogenase (LDH) levels. In dead cells, LDH leaked out of the cells into the medium due to a loss of plasma-membrane integrity.
Three days preceding the experiment, primary pre-cultures of M17.pcDNA3 (as possible control) and M17_3SYN cells were prepared, starting from a stock culture, at a density of 20.000-40.000 cells/cm2 in culture medium (Opti-MEM® Reduced Serum Medium with Phenol Red (Invitrogen, Cat. 31985-047) supplemented with 10% FCS, 1 mM sodium pyruvate, 1×NEAA, 500 μg/ml G418 and 0.5× antibiotic/antimycotic (ABAM)). 3 days later these primary pre-cultures were used as a starting point to make secondary pre-cultures at a density of 50.000-100.000 cells/cm^2. At the day of the experiment these secondary precultures were diluted to ˜0.5·10^6 cells/ml in detection medium (Opti-MEM® Reduced-Serum Medium without Phenol Red (Invitrogen, Cat. 11085-021) supplemented with 10% FCS, 1 mM sodium pyruvate, 1×NEAA, 500 μg/ml G418 and 0.5×ABAM) and 60 μL of this suspension was dispensed per well into a 96-well microtiter plate. After 3 hours of incubation at 37° C./5% CO2 an equal volume of detection medium containing a final concentration of 6 mM Paraquat was added and subsequently incubated for 2 days at 37° C./5% CO2. Then LDH activity was determined using the Promega Cytotox 96 Non-Radioactive cytotoxicity assay (Promega, Cat. G1780), according to the manufacturer's instructions. Cytotoxicity was defined as the ratio of LDH relative to the total LDH in the cells and supernatant.
The assay described above using the M17_3SYN cell line allowed screening compounds for their ability to decrease cytotoxicity in PQ-challenged cells. Compounds of the invention were tested for their ability to decrease toxicity at different concentrations, ranging from low non-effective concentrations to high effective concentrations. Afterwards, a dose-dependent inhibition curve was used to calculate the EC50. A compound was considered to be active in this test when it inhibited toxicity by more than 20% relative to untreated M17_3SYN cells at a concentration of […] or lower.

| SMILES | pEC50 |
| --- | --- |
| COc1ccc(S(=O)(=O)N2CCC3(CC2)CN(S(=O)(=O)c2ccc(F)cc2)C3)cc1 [Cmpd002, 2-((4-Fluorophenyl)sulfonyl)-7-((4-methoxyphenyl)sulfonyl)-2,7-diazaspiro[3.5]nonane] | 7.59 |
| COc1ccc(S(=O)(=O)N2CCC3(CC2)CN(C(=O)C(C)(C)c2ccccc2)C3)cc1 [Cmpd013, 1-(7-((4-Methoxyphenyl)sulfonyl)-2,7-diazaspiro[3.5]nonan-2-yl)-2-methyl-2-phenylpropan-1-one] | 7.35 |
| COc1ccc(S(=O)(=O)N2CCC3(CC2)CN(C(=O)C(C)(C)c2cccc(OC)c2)C3)cc1 [Cmpd016, 2-(3-Methoxyphenyl)-1-(7-((4-methoxyphenyl)sulfonyl)-2,7-diazaspiro[3.5]nonan-2-yl)-2-methylpropan-1-one] | 7.53 |
| COc1ccc(S(=O)(=O)N2CCC3(CC2)CN(c2nc(Cc4ccc(Cl)cc4)ns2)C3)cc1 [Cmpd032, 3-(4-Chlorobenzyl)-5-(7-((4-methoxyphenyl)sulfonyl)-2,7-diazaspiro[3.5]nonan-2-yl)-1,2,4-thiadiazole] | 6.77 |
| COc1ccc(S(=O)(=O)N2CCC3(CC2)CN(c2nc(Cc4ccc(F)c(F)c4)ns2)C3)cc1 [Cmpd033, 3-(3,4-Difluorobenzyl)-5-(7-((4-methoxyphenyl)sulfonyl)-2,7-diazaspiro[3.5]nonan-2-yl)-1,2,4-thiadiazole] | 6.48 |
| CCCCc1nsc(N2CC3(CCN(S(=O)(=O)c4ccc(OC)cc4)CC3)C2)n1 [Cmpd035, 3-Butyl-5-(7-((4-methoxyphenyl)sulfonyl)-2,7-diazaspiro[3.5]nonan-2-yl)-1,2,4-thiadiazole] | 6.49 |
| COc1ccc(S(=O)(=O)N2CCC3(CC2)CN(c2nc(Cc4cccc(C(F)(F)F)c4)ns2)C3)cc1 [Cmpd036, 5-(7-((4-Methoxyphenyl)sulfonyl)-2,7-diazaspiro[3.5]nonan-2-yl)-3-(3-(trifluoromethyl)benzyl)-1,2,4-thiadiazole] | 6.30 |
| CSc1ccc(S(=O)(=O)N2CCC3(CC2)CN(c2nc(Cc4ccc(F)cc4)ns2)C3)cc1 [Cmpd041, 3-(4-Fluorobenzyl)-5-(7-((4-(methylthio)phenyl)sulfonyl)-2,7-diazaspiro[3.5]nonan-2-yl)-1,2,4-thiadiazole] | 6.75 |
| CCOc1ccc(S(=O)(=O)N2CCC3(CC2)CN(S(=O)(=O)c2ccc(OC)cc2)C3)cc1 [Cmpd046, 7-((4-Ethoxyphenyl)sulfonyl)-2-((4-methoxyphenyl)sulfonyl)-2,7-diazaspiro[3.5]nonane] | 8.48 |
| COc1ccc(S(=O)(=O)N2CCC3(CC2)CN(c2nc4ccc(Cl)cc4s2)C3)cc1 [Cmpd052, 6-Chloro-2-(7-((4-methoxyphenyl)sulfonyl)-2,7-diazaspiro[3.5]nonan-2-yl)benzo[d]thiazole] | 6.33 |
| O=S(=O)(c1ccc(OC(F)F)cc1)N1CCC2(CC1)CN(c1nc3ccc(Cl)cc3s1)C2 [Cmpd054, 6-Chloro-2-(7-((4-(difluoromethoxy)phenyl)sulfonyl)-2,7-diazaspiro[3.5]nonan-2-yl)benzo[d]thiazole] | 6.39 |
| CSc1ccc(S(=O)(=O)N2CCC3(CC2)CN(c2nc4ccc(Cl)cc4s2)C3)cc1 [Cmpd055, 6-Chloro-2-(7-((4-(methylthio)phenyl)sulfonyl)-2,7-diazaspiro[3.5]nonan-2-yl)benzo[d]thiazole] | 6.48 |
| COc1ccc(S(=O)(=O)N2CCC3(CC2)CN(c2nc(Cc4ccc(F)cc4)ns2)C3)cc1 [Cmpd057, 3-(4-Fluorobenzyl)-5-(7-((4-methoxyphenyl)sulfonyl)-2,7-diazaspiro[3.5]nonan-2-yl)-1,2,4-thiadiazole] | 8.72 |
| COc1ccc(S(=O)(=O)N2CCC3(CC2)CN(c2nc(Cc4ccc(F)cc4)ns2)C3)cc1OC [Cmpd061, 5-(7-((3,4-Dimethoxyphenyl)sulfonyl)-2,7-diazaspiro[3.5]nonan-2-yl)-3-(4-fluorobenzyl)-1,2,4-thiadiazole] | 6.49 |
| COc1ccc(C)cc1S(=O)(=O)N1CCC2(CC1)CN(c1nc(Cc3ccc(F)cc3)ns1)C2 [Cmpd062, 3-(4-Fluorobenzyl)-5-(7-((2-methoxy-5-methylphenyl)sulfonyl)-2,7-diazaspiro[3.5]nonan-2-yl)-1,2,4-thiadiazole] | 6.47 |
| O=S(=O)(c1cccc(C(F)(F)F)c1)N1CCC2(CC1)CN(c1nc(Cc3ccc(F)cc3)ns1)C2 [Cmpd064, 3-(4-Fluorobenzyl)-5-(7-((3-(trifluoromethyl)phenyl)sulfonyl)-2,7-diazaspiro[3.5]nonan-2-yl)-1,2,4-thiadiazole] | 5.97 |
| Cc1cccc(S(=O)(=O)N2CCC3(CC2)CN(c2nc(Cc4ccc(F)cc4)ns2)C3)c1 [Cmpd066, 3-(4-Fluorobenzyl)-5-(7-(m-tolylsulfonyl)-2,7-diazaspiro[3.5]nonan-2-yl)-1,2,4-thiadiazole] | 6.40 |
| CCc1ccc(S(=O)(=O)N2CCC3(CC2)CN(c2nc(Cc4ccc(F)cc4)ns2)C3)cc1 [Cmpd068, 5-(7-((4-Ethylphenyl)sulfonyl)-2,7-diazaspiro[3.5]nonan-2-yl)-3-(4-fluorobenzyl)-1,2,4-thiadiazole] | 6.40 |
| Cc1ccccc1S(=O)(=O)N1CCC2(CC1)CN(c1nc(Cc3ccc(F)cc3)ns1)C2 [Cmpd069, 3-(4-Fluorobenzyl)-5-(7-(o-tolylsulfonyl)-2,7-diazaspiro[3.5]nonan-2-yl)-1,2,4-thiadiazole] | 6.74 |
| O=S(=O)(c1cccc(F)c1)N1CCC2(CC1)CN(c1nc(Cc3ccc(F)cc3)ns1)C2 [Cmpd071, 3-(4-Fluorobenzyl)-5-(7-((3-fluorophenyl)sulfonyl)-2,7-diazaspiro[3.5]nonan-2-yl)-1,2,4-thiadiazole] | 6.36 |
| COc1ccc(OC)c(S(=O)(=O)N2CCC3(CC2)CN(c2nc(Cc4ccc(F)cc4)ns2)C3)c1 [Cmpd072, 5-(7-((2,5-Dimethoxyphenyl)sulfonyl)-2,7-diazaspiro[3.5]nonan-2-yl)-3-(4-fluorobenzyl)-1,2,4-thiadiazole] | 6.67 |
| O=S(=O)(c1cc(F)ccc1F)N1CCC2(CC1)CN(c1nc(Cc3ccc(F)cc3)ns1)C2 [Cmpd073, 5-(7-((2,5-Difluorophenyl)sulfonyl)-2,7-diazaspiro[3.5]nonan-2-yl)-3-(4-fluorobenzyl)-1,2,4-thiadiazole] | 6.66 |
| O=S(=O)(c1c(F)cccc1F)N1CCC2(CC1)CN(c1nc(Cc3ccc(F)cc3)ns1)C2 [Cmpd074, 5-(7-((2,6-Difluorophenyl)sulfonyl)-2,7-diazaspiro[3.5]nonan-2-yl)-3-(4-fluorobenzyl)-1,2,4-thiadiazole] | 6.59 |
| COc1cccc(S(=O)(=O)N2CCC3(CC2)CN(c2nc(Cc4ccc(F)cc4)ns2)C3)c1 [Cmpd076, 3-(4-Fluorobenzyl)-5-(7-((3-methoxyphenyl)sulfonyl)-2,7-diazaspiro[3.5]nonan-2-yl)-1,2,4-thiadiazole] | 6.40 |
| Cc1ccc(F)cc1S(=O)(=O)N1CCC2(CC1)CN(c1nc(Cc3ccc(F)cc3)ns1)C2 [Cmpd077, 5-(7-((5-Fluoro-2-methylphenyl)sulfonyl)-2,7-diazaspiro[3.5]nonan-2-yl)-3-(4-fluorobenzyl)-1,2,4-thiadiazole] | 6.63 |
| COc1ccccc1S(=O)(=O)N1CCC2(CC1)CN(c1nc(Cc3ccc(F)cc3)ns1)C2 [Cmpd080, 3-(4-Fluorobenzyl)-5-(7-((2-methoxyphenyl)sulfonyl)-2,7-diazaspiro[3.5]nonan-2-yl)-1,2,4-thiadiazole] | 6.30 |
| O=S(=O)(c1cc(F)cc(F)c1)N1CCC2(CC1)CN(c1nc(Cc3ccc(F)cc3)ns1)C2 [Cmpd083, 5-(7-((3,5-Difluorophenyl)sulfonyl)-2,7-diazaspiro[3.5]nonan-2-yl)-3-(4-fluorobenzyl)-1,2,4-thiadiazole] | 6.43 |
| COC(=O)c1cccc(S(=O)(=O)N2CCC3(CC2)CN(c2nc(Cc4ccc(F)cc4)ns2)C3)c1 [Cmpd084, Methyl 3-((2-(3-(4-fluorobenzyl)-1,2,4-thiadiazol-5-yl)-2,7-diazaspiro[3.5]nonan-7-yl)sulfonyl)benzoate] | 6.42 |
